This is an account of results in patent US20260035403A1, “NUCLEOSIDE LINE-1 INHIBITORS” (TRANSPOSON THERAPEUTICS, INC., priority 2022, published 2026).

Some results are limits rather than exact numbers.

One test relates to human LINE-1. Nature of the test: Human LINE-1 retrotransposition assay (HeLa cell-based dual-luciferase reporter). To be noted: Homo sapiens, HeLa, 72 h, Human LINE-1 activity inhibition; HeLa cells, reporter plasmid pYX017, Firefly/Renilla, 72 h incubation. In outline: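 HeLa cells transfected with pYX017 dual-luciferase L1 reporter and treated with serially diluted compound (0.2% DMSO final) for 72 h at 37° C. Relative L1 activity as Firefly/Renilla ratio; IC50 from four-parameter logistic fit.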
As a reminder, the IC50 is the point on the concentration scale where inhibition reaches its midpoint. Higher therefore signals weaker potency in that assay. The molecule `C#C[C@@]1(CO)C=C[C@H](n2ccc(=O)[nH]c2=O)O1` [compound 30, 1-((2R,5R)-5-ethynyl-5-(hydroxymethyl)-2,5-dihydrofuran-2-yl)pyrimidine-2,4(1H,3H)-dione] showed an IC50 of 16 µM. This counts as double-digit micromolar.

`C#C[C@]1(CO)O[C@@H](n2cc(C)c(=O)[nH]c2=O)C[C@H]1O` [compound 29, 1-((2R,4R,5R)-5-ethynyl-4-hydroxy-5-(hydroxymethyl)tetrahydrofuran-2-yl)-5-methylpyrimidine-2,4(1H,3H)-dione] displayed an IC50 of over 50 µM.

For the molecule `C=C[C@]1(CO)O[C@@H](n2cnc3c(NC4CC4)nc(F)nc32)C[C@@H]1O` [Cpd. No. 5, (2R,3S,5R)-5-(6-(cyclopropylamino)-2-fluoro-9H-purin-9-yl)-2-(hydroxymethyl)-2-vinyltetrahydrofuran-3-ol], the IC50 stood at 0.469 µM.

Molecule `C#C[C@]1(CO)O[C@@H](n2cnc3c(NC4CC4)ncnc32)C[C@@H]1O` [compound 86, (2R,3S,5R)-5-(6-(cyclopropylamino)-9H-purin-9-yl)-2-ethynyl-2-(hydroxymethyl)tetrahydrofuran-3-ol] came in with an IC50 of 3.4 µM.

In turn, `C#C[C@]1(CO)OC(n2ccc(=O)[nH]c2=O)C[C@@H]1O` (stereo partly drawn) [compound 51, 1-((4S,5R)-5-ethynyl-4-hydroxy-5-(hydroxymethyl)tetrahydrofuran-2-yl)pyrimidine-2,4(1H,3H)-dione] came in with an IC50 of 5.08 µM.

For the molecule `C=C[C@]1(CO)O[C@H](n2cc(C#N)c(=O)[nH]c2=O)C[C@@H]1O` [compound 7, 1-((2S,4S,5R)-4-hydroxy-5-(hydroxymethyl)-5-vinyltetrahydrofuran-2-yl)-2,4-dioxo-1,2,3,4-tetrahydropyrimidine-5-carbonitrile], the IC50 worked out at 0.89 µM.

`C=C[C@]1(CO)O[C@H](n2cc(C)c(=O)[nH]c2=O)C[C@@H]1O` [compound 63, 1-((2S,4S,5R)-4-hydroxy-5-(hydroxymethyl)-5-vinyltetrahydrofuran-2-yl)-5-methylpyrimidine-2,4(1H,3H)-dione]: the IC50 was over 12.5 µM.

With `C=C[C@]1(CO)O[C@@H](n2cc(Br)c(N)nc2=O)C[C@@H]1O` [Cpd. No. 90, 4-amino-5-bromo-1-((2R,4S,5R)-4-hydroxy-5-(hydroxymethyl)-5-vinyltetrahydrofuran-2-yl)pyrimidin-2(1H)-one], it took 0.658 µM to reach half-maximal inhibition (IC50).

In the case of `C#C[C@@]1(COC)C=C[C@H](n2cc(C)c(=O)[nH]c2=O)O1` [compound 106, 1-((2R,5R)-5-ethynyl-5-(methoxymethyl)-2,5-dihydrofuran-2-yl)-5-methylpyrimidine-2,4(1H,3H)-dione], the IC50 was determined as 24 µM.

As to `C=C[C@]1(CO)O[C@@H](n2cc(Br)c(=O)[nH]c2=O)C[C@@H]1O` [Cpd. No. 64, 5-bromo-1-((2R,4S,5R)-4-hydroxy-5-(hydroxymethyl)-5-vinyltetrahydrofuran-2-yl)pyrimidine-2,4(1H,3H)-dione], half-maximal inhibition (IC50) was put at 9.93 µM.

For `C#C[C@@]1(CO)O[C@H](n2ccc(N)nc2=O)C[C@H]1O` [Cpd. No. 76, 4-amino-1-((2S,4R,5S)-5-ethynyl-4-hydroxy-5-(hydroxymethyl)tetrahydrofuran-2-yl)pyrimidin-2(1H)-one], the IC50 was over 6.25 µM.

In the case of `C=C[C@]1(CO)O[C@@H](n2cc(F)c(=O)[nH]c2=O)C[C@@H]1O` [Cpd. No. 17, 5-fluoro-1-((2R,4S,5R)-4-hydroxy-5-(hydroxymethyl)-5-vinyltetrahydrofuran-2-yl)pyrimidine-2,4(1H,3H)-dione], half-maximal inhibition (IC50) required 2.35 µM.

`C#C[C@@]1(CO)C=C[C@H](n2cc(F)c(N)nc2=O)O1` [compound 40, 4-amino-1-((2R,5R)-5-ethynyl-5-(hydroxymethyl)-2,5-dihydrofuran-2-yl)-5-fluoropyrimidin-2(1H)-one] returned an IC50 of over 50 µM.

The molecule `COc1nc(N)nc2c1ncn2[C@H]1C[C@H](O)[C@](CO)(CF)O1` [compound 163, (2R,3S,5R)-5-(2-amino-6-methoxy-9H-purin-9-yl)-2-(fluoromethyl)-2-(hydroxymethyl)tetrahydrofuran-3-ol] gave an IC50 of 14 µM.

Take `C#C[C@]1(CO)O[C@H](n2cnc3c(N)nc(N)nc32)C[C@@H]1O` [compound 72, (2R,3S,5S)-5-(2,6-diamino-9H-purin-9-yl)-2-ethynyl-2-(hydroxymethyl)tetrahydrofuran-3-ol]: the IC50 turned out to be 23.4 µM. Compared with the last molecule, the IC50 is about 1.7-fold higher.

For the molecule `C=C[C@]1(CO)O[C@@H](n2cc(C)c(=O)[nH]c2=O)C[C@@H]1O` [Cpd. No. 62, 1-((2R,4S,5R)-4-hydroxy-5-(hydroxymethyl)-5-vinyltetrahydrofuran-2-yl)-5-methylpyrimidine-2,4(1H,3H)-dione], half-maximal inhibition (IC50) required 3.67 µM.

With `Nc1nc(=O)n([C@H]2C[C@@H]3OC=C[C@]3(CO)O2)cc1F` [compound 139, 4-amino-5-fluoro-1-((2R,3aS,6aR)-6a-(hydroxymethyl)-2,3,3a,6a-tetrahydrofuro[3,2-b]furan-2-yl)pyrimidin-2(1H)-one], the IC50 was found to be 3.17 µM.

With `C#C[C@]1(CO)OC(n2cc(Br)c(N)nc2=O)C[C@@H]1O` (stereo partly drawn) [compound 60, 4-amino-5-bromo-1-((4S,5R)-5-ethynyl-4-hydroxy-5-(hydroxymethyl)tetrahydrofuran-2-yl)pyrimidin-2(1H)-one], the IC50 worked out at 5.65 µM.

Turning to `CC[C@]1(CO)OC(n2cc(Br)c(N)nc2=O)C[C@@H]1O` (stereo partly drawn) [Cpd. No. 70, 4-amino-5-bromo-1-((4S,5R)-5-ethyl-4-hydroxy-5-(hydroxymethyl)tetrahydrofuran-2-yl)pyrimidin-2(1H)-one], half-maximal inhibition (IC50) was put at 0.432 µM. This IC50 is about 13-fold lower than that of the molecule before.

Consider `C#C[C@@]1(CO)C=C[C@H](n2cnc3c(N)ncnc32)O1` [compound 14, ((2R,5R)-5-(6-amino-9H-purin-9-yl)-2-ethynyl-2,5-dihydrofuran-2-yl)methanol], for which it took 50 µM to reach half-maximal inhibition (IC50).

As for `CC[C@]1(CO)O[C@@H](n2cnc3c(O)ncnc32)C[C@@H]1O` [Cpd. No. 1], the IC50 was determined as 0.062 µM.

The molecule `C=C[C@]1(CO)O[C@H](n2ccc(N)nc2=O)C[C@@H]1O` [compound 89, 4-amino-1-((2S,4S,5R)-4-hydroxy-5-(hydroxymethyl)-5-vinyltetrahydrofuran-2-yl)pyrimidin-2(1H)-one] gave an IC50 of 1.28 µM.

As for `Cc1cn([C@H]2C=C[C@@](C)(CO)O2)c(=O)[nH]c1=O` [compound 21, 1-((2R,5S)-5-(hydroxymethyl)-5-methyl-2,5-dihydrofuran-2-yl)-5-methylpyrimidine-2,4(1H,3H)-dione], the IC50 was over 50 µM.

`COC[C@@H]1C=C[C@H](n2cc(C)c(=O)[nH]c2=O)O1` [compound 107, 1-((2R,5S)-5-(methoxymethyl)-2,5-dihydrofuran-2-yl)-5-methylpyrimidine-2,4(1H,3H)-dione] gave an IC50 of 7.3 µM.

Molecule `C#C[C@]1(CO)O[C@H](n2cnc3c(=O)[nH]c(N)nc32)C[C@@H]1O` [compound 49, 2-amino-9-((2S,48,5R)-5-ethynyl-4-hydroxy-5-(hydroxymethyl)tetrahydrofuran-2-yl)-1,9-dihydro-6H-purin-6-one] displayed an IC50 of 0.052 µM. This IC50 is about 140-fold lower than that of the molecule before.

As for `CC[C@]1(CO)O[C@@H](n2cnc3c(N)nc(Cl)nc32)[C@H](O)[C@@H]1O` [compound 195, (2R,3S,4R,5R)-5-(6-amino-2-chloro-9H-purin-9-yl)-2-ethyl-2-(hydroxymethyl)tetrahydrofuran-3,4-diol], the IC50 was over 50 µM.

`C#C[C@@]1(CO)C[C@@H](Sc2ccc(C)cc2)[C@H](n2cc(C)c(=O)[nH]c2=O)O1` [compound 26, 1-((2R,3R,5R)-5-ethynyl-5-(hydroxymethyl)-3-(p-tolylthio)tetrahydrofuran-2-yl)-5-methylpyrimidine-2,4(1H,3H)-dione]: the IC50 is over 50 µM.

With `CC[C@]1(CO)O[C@@H](n2cnc3c(N)ncnc32)[C@@H](F)[C@@H]1O` [compound 192, (2R,3R,4S,5R)-5-(6-amino-9H-purin-9-yl)-2-ethyl-4-fluoro-2-(hydroxymethyl)tetrahydrofuran-3-ol], inhibition was half-maximal at 0.122 µM (IC50).

Still in this test, the particulars now being: Human LINE-1 activity inhibition; HeLa cells, reporter plasmid pYX017, Firefly/Renilla, 72 h incubation.
The molecule `C#C[C@@]1(CO)C=C[C@H](n2cc(F)c(=O)[nH]c2=O)O1` [Cpd. No. 19, 1-((2R,5R)-5-ethynyl-5-(hydroxymethyl)-2,5-dihydrofuran-2-yl)-5-fluoropyrimidine-2,4(1H,3H)-dione] had an IC50 of over 50 µM.

Molecule `CC[C@]1(CO)O[C@@H](n2cnc3c(N)nc(Cl)nc32)[C@@H](F)[C@@H]1O` [compound 182, (2R,3R,4S,5R)-5-(6-amino-2-chloro-9H-purin-9-yl)-2-ethyl-4-fluoro-2-(hydroxymethyl)tetrahydrofuran-3-ol] returned an IC50 of 293 µM.
